Measurements as given in PubChem BioAssay (NCI).
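Results reflect a 48-hour exposure of cells in 96-well plates to compound at five concentrations. At the TGI there is no net growth.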

Tests used:
Experiment in all cases: inhibition of tumour cell growth, NCI panel, 48 h
786-0 renal = system: 786-0 renal
U251 CNS = system: U251 CNS
OVCAR-4 ovarian = system: OVCAR-4 ovarian
SW-620 colon = system: SW-620 colon
SK-OV-3 ovarian = system: SK-OV-3 ovarian
UACC-257 melanoma = system: UACC-257 melanoma
MOLT-4 leukemia = system: MOLT-4 leukemia
COLO 205 colon = system: COLO 205 colon
UACC-62 melanoma = system: UACC-62 melanoma
A498 renal = system: A498 renal
NCI-H23 lung = system: NCI-H23 lung
SK-MEL-5 melanoma = system: SK-MEL-5 melanoma
SK-MEL-2 melanoma = system: SK-MEL-2 melanoma
NCI-H460 lung = system: NCI-H460 lung
KM20L2 colon = system: KM20L2 colon
LOX IMVI melanoma = system: LOX IMVI melanoma
HOP-62 NSCLC = system: HOP-62 NSCLC
LXFL 529 NSCLC = system: LXFL 529 NSCLC
DMS 114 small cell lung = system: DMS 114 small cell lung
SR leukemia = system: SR leukemia
IGROV1 ovarian = system: IGROV1 ovarian
SNB-19 CNS = system: SNB-19 CNS
M14 melanoma = system: M14 melanoma
MALME-3M melanoma = system: MALME-3M melanoma
HCC-2998 colon = system: HCC-2998 colon
HCT-15 colon = system: HCT-15 colon
DMS 273 small cell lung = system: DMS 273 small cell lung
SN12C renal = system: SN12C renal
K-562 leukemia = system: K-562 leukemia
TK-10 renal = system: TK-10 renal
RPMI-8226 leukemia = system: RPMI-8226 leukemia
ACHN renal = system: ACHN renal
HCT-116 colon = system: HCT-116 colon
SK-MEL-28 melanoma = system: SK-MEL-28 melanoma
HT29 colon = system: HT29 colon
HOP-92 NSCLC = system: HOP-92 NSCLC
OVCAR-5 ovarian = system: OVCAR-5 ovarian
NCI-H226 lung = system: NCI-H226 lung
OVCAR-8 ovarian = system: OVCAR-8 ovarian
UO-31 renal = system: UO-31 renal
EKVX NSCLC = system: EKVX NSCLC
SF-295 CNS = system: SF-295 CNS
HL-60(TB) leukemia = system: HL-60(TB) leukemia
SF-539 CNS = system: SF-539 CNS
CCRF-CEM leukemia = system: CCRF-CEM leukemia
A549 NSCLC = system: A549 NSCLC
SF-268 CNS = system: SF-268 CNS
SNB-78 CNS = system: SNB-78 CNS
OVCAR-3 ovarian = system: OVCAR-3 ovarian
KM12 colon = system: KM12 colon
M19-MEL melanoma = system: M19-MEL melanoma
NCI-H522 lung = system: NCI-H522 lung
DLD-1 colon = system: DLD-1 colon
SNB-75 CNS = system: SNB-75 CNS
XF 498 CNS = system: XF 498 CNS
RXF 393 renal = system: RXF 393 renal

Measured: TGI

CC(=O)NNc1nc(C)c(C(=O)NNC(=O)C(=O)Nc2c(Cl)cc([N+](=O)[O-])cc2Cl)s1
86.2 µM: UACC-62 melanoma
63.2 µM: OVCAR-4 ovarian
87.1 µM: UO-31 renal
68.7 µM: UACC-257 melanoma
36.7 µM: NCI-H23 lung
66.8 µM: SF-539 CNS
56.2 µM: HOP-92 NSCLC
84.7 µM: HL-60(TB) leukemia
82.6 µM: NCI-H226 lung
66.3 µM: A498 renal
78.5 µM: SW-620 colon
94.9 µM: DMS 114 small cell lung
97.6 µM: MOLT-4 leukemia
86.1 µM: SF-268 CNS
93.4 µM: OVCAR-5 ovarian | CCRF-CEM leukemia
69.8 µM: SK-MEL-28 melanoma
52.8 µM: OVCAR-3 ovarian
not listed: NCI-H522 lung | DLD-1 colon | SNB-75 CNS | XF 498 CNS | RXF 393 renal
> 100 µM: all other assays above

COc1ccc2c3c1C(=O)CCCC3CO2 (stereo not drawn)
not listed: KM20L2 colon | SR leukemia | HCT-116 colon | EKVX NSCLC
> 100 µM: all other assays above
